Molecules are shown by their SMILES.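 Where inhibition never reached the appropriate level, the endpoint shown equals the highest concentration tested. Otherwise, values were interpolated linearly from a five-concentration, 48-hour dose response in 96-well plates. TGI is the concentration that stops growth completely.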

For the first assay, the system named is CCRF-CEM leukemia. As to the kind of experiment: NCI-60 cell line screen, 48 h.
`N#CC1(C#N)C2CCCCC23OC(=N)C1(C#N)C(c1ccccc1)O3` (stereo not drawn) came in with a TGI of over 100 µM.
As for `CCN1CCN=c2c3cc(OC)ccc3n3cnc4ccc1c2c43`, the TGI was 0.747 µM.
`Cc1ccsc1/C=N/Nc1ccc2ccccc2n1` returned a TGI of over 100 µM.

The subject of the next assay is HL-60(TB) leukemia. The assay can be described thus: NCI-60 cell line screen, 48 h.
As to `CCN1CCN=c2c3cc(OC)ccc3n3cnc4ccc1c2c43`, the TGI turned out to be 0.483 µM.
On the same count and under the same terms, with `Cc1ccsc1/C=N/Nc1ccc2ccccc2n1` the figure was 40.1 µM.

The next assay concerns MDA-N. As to the kind of experiment: NCI-60 cell line screen, 48 h.
Turning to `CC[C@]1(Cc2ccc(OC)c(OC)c2)[C@@H]2C[C@@H](C3OCCO3)ON2O[C@H](OC2CCCC2(c2ccccc2)c2ccccc2)[C@@H]1OC(C)=O` (stereo partly drawn), the TGI was over 100 µM.
As for `N#CC1(C#N)C2CCCCC23OC(=N)C1(C#N)C(c1ccccc1)O3` (stereo not drawn), the TGI stood at 27.9 µM.
For `CCN1CCN=c2c3cc(OC)ccc3n3cnc4ccc1c2c43`, the TGI was determined as 1.11 µM.
As for `Cc1ccsc1/C=N/Nc1ccc2ccccc2n1`, the TGI is over 100 µM.

For the next assay, the system named is NCI-H23 lung. The assay can be described thus: NCI-60 cell line screen, 48 h.
In turn, `CC[C@]1(Cc2ccc(OC)c(OC)c2)[C@@H]2C[C@@H](C3OCCO3)ON2O[C@H](OC2CCCC2(c2ccccc2)c2ccccc2)[C@@H]1OC(C)=O` (stereo partly drawn) displayed a TGI of 43.4 µM.
Same read-out and setting: with `N#CC1(C#N)C2CCCCC23OC(=N)C1(C#N)C(c1ccccc1)O3` (stereo not drawn) the figure was over 100 µM.
Regarding `CCN1CCN=c2c3cc(OC)ccc3n3cnc4ccc1c2c43`, the TGI amounted to 0.985 µM.
`Cc1ccsc1/C=N/Nc1ccc2ccccc2n1` had a TGI of over 100 µM.

The test system of another assay is RXF 393 renal. The assay can be described thus: NCI-60 cell line screen, 48 h.
With `N#CC1(C#N)C2CCCCC23OC(=N)C1(C#N)C(c1ccccc1)O3` (stereo not drawn), the TGI was over 100 µM.
In turn, `CCN1CCN=c2c3cc(OC)ccc3n3cnc4ccc1c2c43` displayed a TGI of 1.05 µM.
The same measure, in the same setting: for `Cc1ccsc1/C=N/Nc1ccc2ccccc2n1` the value was 89.8 µM.

Another assay concerns SF-268 CNS. As to the kind of experiment: NCI-60 cell line screen, 48 h.
`CC[C@]1(Cc2ccc(OC)c(OC)c2)[C@@H]2C[C@@H](C3OCCO3)ON2O[C@H](OC2CCCC2(c2ccccc2)c2ccccc2)[C@@H]1OC(C)=O` (stereo partly drawn): the TGI stood at 44.1 µM.
The compound `N#CC1(C#N)C2CCCCC23OC(=N)C1(C#N)C(c1ccccc1)O3` (stereo not drawn) had a TGI of 18.1 µM.
On to `CCN1CCN=c2c3cc(OC)ccc3n3cnc4ccc1c2c43`, for which the TGI stood at 4.69 µM.
The compound `Cc1ccsc1/C=N/Nc1ccc2ccccc2n1` returned a TGI of over 100 µM.

The next assay deals with SK-MEL-2 melanoma. The assay can be described thus: NCI-60 cell line screen, 48 h.
The compound `CC[C@]1(Cc2ccc(OC)c(OC)c2)[C@@H]2C[C@@H](C3OCCO3)ON2O[C@H](OC2CCCC2(c2ccccc2)c2ccccc2)[C@@H]1OC(C)=O` (stereo partly drawn) gave a TGI of 29.5 µM.
`N#CC1(C#N)C2CCCCC23OC(=N)C1(C#N)C(c1ccccc1)O3` (stereo not drawn) yielded a TGI of 43 µM.
In turn, `CCN1CCN=c2c3cc(OC)ccc3n3cnc4ccc1c2c43` had a TGI of 0.808 µM.
On the same count and under the same terms, with `Cc1ccsc1/C=N/Nc1ccc2ccccc2n1` the figure was over 100 µM.

A further assay concerns SF-295 CNS. As to the kind of experiment: NCI-60 cell line screen, 48 h.
`CC[C@]1(Cc2ccc(OC)c(OC)c2)[C@@H]2C[C@@H](C3OCCO3)ON2O[C@H](OC2CCCC2(c2ccccc2)c2ccccc2)[C@@H]1OC(C)=O` (stereo partly drawn) came in with a TGI of 39.1 µM.
In turn, `N#CC1(C#N)C2CCCCC23OC(=N)C1(C#N)C(c1ccccc1)O3` (stereo not drawn) had a TGI of over 100 µM.
For `CCN1CCN=c2c3cc(OC)ccc3n3cnc4ccc1c2c43`, the TGI amounted to 1.29 µM.
For the compound `Cc1ccsc1/C=N/Nc1ccc2ccccc2n1`, the TGI is 31 µM.

The next assay has as its system MALME-3M melanoma. The assay can be described thus: NCI-60 cell line screen, 48 h.
Turning to `N#CC1(C#N)C2CCCCC23OC(=N)C1(C#N)C(c1ccccc1)O3` (stereo not drawn), the TGI came to 34.5 µM.
For the compound `CCN1CCN=c2c3cc(OC)ccc3n3cnc4ccc1c2c43`, the TGI was found to be 1.1 µM.

The next assay concerns IGROV1 ovarian. The assay can be described thus: NCI-60 cell line screen, 48 h.
In the case of `CC[C@]1(Cc2ccc(OC)c(OC)c2)[C@@H]2C[C@@H](C3OCCO3)ON2O[C@H](OC2CCCC2(c2ccccc2)c2ccccc2)[C@@H]1OC(C)=O` (stereo partly drawn), the TGI worked out at 50.1 µM.
In turn, `N#CC1(C#N)C2CCCCC23OC(=N)C1(C#N)C(c1ccccc1)O3` (stereo not drawn) had a TGI of 37.2 µM.
The same measure, in the same setting: for `CCN1CCN=c2c3cc(OC)ccc3n3cnc4ccc1c2c43` the value was 7.62 µM.
`Cc1ccsc1/C=N/Nc1ccc2ccccc2n1`: the TGI is 79.3 µM.

For a further assay, the system named is SK-MEL-28 melanoma. The assay can be described thus: NCI-60 cell line screen, 48 h.
For `CC[C@]1(Cc2ccc(OC)c(OC)c2)[C@@H]2C[C@@H](C3OCCO3)ON2O[C@H](OC2CCCC2(c2ccccc2)c2ccccc2)[C@@H]1OC(C)=O` (stereo partly drawn), the TGI stood at 47.3 µM.
`CCN1CCN=c2c3cc(OC)ccc3n3cnc4ccc1c2c43` displayed a TGI of 1.83 µM.
For the compound `Cc1ccsc1/C=N/Nc1ccc2ccccc2n1`, the TGI is over 100 µM.

For a further assay, the system named is K-562 leukemia. As to the kind of experiment: NCI-60 cell line screen, 48 h.
As for `CC[C@]1(Cc2ccc(OC)c(OC)c2)[C@@H]2C[C@@H](C3OCCO3)ON2O[C@H](OC2CCCC2(c2ccccc2)c2ccccc2)[C@@H]1OC(C)=O` (stereo partly drawn), the TGI is 39.1 µM.
Turning to `N#CC1(C#N)C2CCCCC23OC(=N)C1(C#N)C(c1ccccc1)O3` (stereo not drawn), the TGI was over 100 µM.
In the case of `CCN1CCN=c2c3cc(OC)ccc3n3cnc4ccc1c2c43`, the TGI was 0.4 µM.
In turn, `Cc1ccsc1/C=N/Nc1ccc2ccccc2n1` displayed a TGI of over 100 µM.

The next assay deals with ACHN renal. The assay can be described thus: NCI-60 cell line screen, 48 h.
For `CC[C@]1(Cc2ccc(OC)c(OC)c2)[C@@H]2C[C@@H](C3OCCO3)ON2O[C@H](OC2CCCC2(c2ccccc2)c2ccccc2)[C@@H]1OC(C)=O` (stereo partly drawn), the TGI was found to be 33.5 µM.
Same read-out and setting: with `N#CC1(C#N)C2CCCCC23OC(=N)C1(C#N)C(c1ccccc1)O3` (stereo not drawn) the figure was over 100 µM; with `CCN1CCN=c2c3cc(OC)ccc3n3cnc4ccc1c2c43`, 0.792 µM.
For the compound `Cc1ccsc1/C=N/Nc1ccc2ccccc2n1`, the TGI is over 100 µM.

For the next assay, the system named is NCI/ADR-RES ovarian. The assay can be described thus: NCI-60 cell line screen, 48 h.
With `CC[C@]1(Cc2ccc(OC)c(OC)c2)[C@@H]2C[C@@H](C3OCCO3)ON2O[C@H](OC2CCCC2(c2ccccc2)c2ccccc2)[C@@H]1OC(C)=O` (stereo partly drawn), the TGI stood at 53.9 µM.
Turning to `N#CC1(C#N)C2CCCCC23OC(=N)C1(C#N)C(c1ccccc1)O3` (stereo not drawn), the TGI was over 100 µM.
On to `CCN1CCN=c2c3cc(OC)ccc3n3cnc4ccc1c2c43`, for which the TGI is 0.489 µM.
`Cc1ccsc1/C=N/Nc1ccc2ccccc2n1`: the TGI is over 100 µM.

The subject of the next assay is HT29 colon. As to the kind of experiment: NCI-60 cell line screen, 48 h.
`CC[C@]1(Cc2ccc(OC)c(OC)c2)[C@@H]2C[C@@H](C3OCCO3)ON2O[C@H](OC2CCCC2(c2ccccc2)c2ccccc2)[C@@H]1OC(C)=O` (stereo partly drawn) returned a TGI of 42.4 µM.
For the compound `N#CC1(C#N)C2CCCCC23OC(=N)C1(C#N)C(c1ccccc1)O3` (stereo not drawn), the TGI came to 60.2 µM.
The same measure, in the same setting: with `CCN1CCN=c2c3cc(OC)ccc3n3cnc4ccc1c2c43` the figure was 1.01 µM.
Same read-out and setting: with `Cc1ccsc1/C=N/Nc1ccc2ccccc2n1` the figure was over 100 µM.

The record behind these values is PubChem BioAssay (NCI).
